# Reference: patent US11358933B2, “Compounds and methods for inhibiting CYP26 enzymes” (Queen's University at Kingston, priority 2017, dated 2022)
# Columns and labels:
# CYP26B1 = CYP26B1 (Homo sapiens (Human), UniProt Q9NR63); assay: Cell-based inhibitor assay ([3H]-RA metabolism), CYP26B1 stably transfected HeLa cells
# Procedure: CYP26A1 or CYP26B1 stably transfected HeLa cells were maintained in Minimum Essential Medium (MEM) containing 10% fetal bovine serum (FBS) and 100 μg/mL hygromycin. Exponentially growing cells were harvested by incubation in trypsin. Cells were then collected and re-plated in 48-well culture plates at 5×10^5 cells in 0.2 mL of culture medium containing 0.05 μCi [^3H]-RA in the presence or absence of increasing concentrations of a test compound. The test compounds were diluted in dimethyl sulfoxide (DMSO) and then added in duplicate to wells at 0.01, 0.1, 1, 10 and 100 μM final concentration. As a positive control for inhibition of RA metabolism, cells were also incubated with ketoconazole at the same concentrations as above. Cells were incubated for 3 hours at 37° C. Retinoids were then extracted using the procedure of Bligh, et al., (1959), Canadian Journal of Biochemistry 37, 911-917, which was modified by using dichloromethane instead of chloroform. Each sample's water soluble radioactivity level was quantified using a β-scintillation counter (using Ecolume scintillation fluid, available from MP Biomedicals of Solon, Ohio, USA). IC50 values represented the concentration of inhibitor required to inhibit all trans-RA metabolism by 50%, and were derived from log transformed data.
# MV4-11 cells [1] = assay: Leukemia cell differentiation by FACS (CD11b+), MV4-11 cells with or without stroma; format: cell-based, human; conditions: RA plus compound, in the presence of stroma
# Procedure: (§1) Many human non-APL AML cell lines are sensitive to RA-induced differentiation. However, co-culture of leukemic cells with bone marrow stromal cells can block this effect of RA. This assay tests the ability of CYP26 inhibitor compounds to overcome the protective effect that stromal cells have on leukemic cell differentiation. For these experiments, OP9 mouse bone marrow stromal cells are grown MEM-α containing 20% FBS, in 24 well plates until a cell monolayer is formed. OP9 cells are then irradiated (15Gy) using a GammaCell 20 cesium-137 source (located at Queen's University) in order to induce growth arrest. Leukemic cells are then added to the irradiated monolayers, or control wells without OP9 cells. AML cell lines (150,000 cells) are then plated onto OP9 monolayers in their appropriated growth medium; THP-1 RPMI-1640 medium containing 10% FBS; MDSL, RPMI-1640 medium containing 10% FBS and 10 ng/ml recombinant human IL-3; Kasumi-1, RPMI-1640 containing 20% FBS; MV4-11, IMDM containing 10% FBS. […] Stained cells are then sorted by FACS in a BD FACS Aria 3 flow cytometer (Queen's University) using FACS Diva software, to assess percentage of cells that are CD11b^+, the relative expression levels of CD11b (by median fluorescence intensity—MFI), or percentage of CD34^+CD38^− leukemic stem cells (LSCs). […]
# MV4-11 cells [2] = assay: Leukemia cell apoptosis (FITC-Annexin V), MV4-11 cells; format: cell-based, human; conditions: 0.1 μM RA plus 1 μM compound, stromal cells present, 48 hours
# Procedure: RA can also induce apoptosis is a variety of cell types, including AML cells. This experiment tests CYP26 inhibitor compounds for their ability to rescue RA-induced apoptosis in the presence of bone marrow stromal cells. For these experiments MV4-11 AML cells are plated as above, in the presence and absence of stromal monolayers. Cells are then treated for 48 hours with RA (0.1 μM). After the treatment period, cells are stained with a FITC-labeled annexin V antibody (available from Thermofisher Scientific), which binds to the surface of apoptotic cells. Cells are then sorted by FACS in a as above and data are expressed as percentage of annexin V^+ (apoptotic) cells.
# kasumi-1 human AML cells = assay: CD34+CD38- LSC analysis by FACS, Kasumi-1 cells with or without OP9 stroma; format: cell-based; conditions: 1 μM RA plus compound, OP9 stroma present, 72 hours
# Procedure: as §1
# Sequence of CYP26B1 (Q9NR63 whole entry): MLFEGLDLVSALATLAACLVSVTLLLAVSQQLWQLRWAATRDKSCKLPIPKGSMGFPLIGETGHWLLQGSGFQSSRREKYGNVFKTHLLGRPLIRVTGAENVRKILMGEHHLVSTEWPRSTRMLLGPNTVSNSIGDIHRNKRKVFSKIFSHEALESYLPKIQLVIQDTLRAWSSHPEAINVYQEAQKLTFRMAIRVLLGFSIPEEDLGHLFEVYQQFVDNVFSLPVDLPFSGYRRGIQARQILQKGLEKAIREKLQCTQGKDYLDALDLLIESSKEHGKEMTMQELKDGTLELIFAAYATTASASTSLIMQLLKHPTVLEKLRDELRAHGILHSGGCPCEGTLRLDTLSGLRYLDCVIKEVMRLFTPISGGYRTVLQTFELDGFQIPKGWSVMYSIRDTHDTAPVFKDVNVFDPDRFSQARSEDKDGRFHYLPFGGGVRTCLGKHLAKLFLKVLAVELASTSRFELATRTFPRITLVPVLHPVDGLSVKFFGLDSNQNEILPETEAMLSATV
compound,measurement,setting,value
CC(C)(C)c1cccc(-c2cc3cc(/C=C/C(=O)O)ccc3[nH]2)c1 [Compound 026],CYP26B1 inhibition compared with ketoconazole,CYP26B1; FIG. 2,dramatically increased inhibition of CYP26B1 enzyme activity compared with ketoconazole
same,Selectivity CYP26B1 versus CYP26A1,CYP26B1; HeLa cell-based assay,highly selective towards CYP26B1
same,IC50,"CYP26B1; HeLa cell-based assay, 3 hours",200 nM
same,CYP26B1 Rel. to keto,CYP26B1; IC50 relative to ketoconazole,0.02
same,RA-induced differentiation (CD11b+ cells),MV4-11 cells [1],rescued RA-induced differentiation in the presence of stroma
same,RA-induced apoptosis (Annexin V positive cells),MV4-11 cells [2],rescued by the addition of compound 026
same,Number of CD34+CD38- cells (LSCs),kasumi-1 human AML cells,restored the ability of RA to reduce the number of
